# Calls of active or inactive are those of the source. The rule behind the calls is not given here.
# Columns and labels:
# [1] = molecular target: T1, Catenin beta-1 (Homo sapiens) (UniProt P35222); experiment: Binding affinity to human beta-catenin at 1 mM by 1H-STD NMR analysis
# T1 sequence (whole entry): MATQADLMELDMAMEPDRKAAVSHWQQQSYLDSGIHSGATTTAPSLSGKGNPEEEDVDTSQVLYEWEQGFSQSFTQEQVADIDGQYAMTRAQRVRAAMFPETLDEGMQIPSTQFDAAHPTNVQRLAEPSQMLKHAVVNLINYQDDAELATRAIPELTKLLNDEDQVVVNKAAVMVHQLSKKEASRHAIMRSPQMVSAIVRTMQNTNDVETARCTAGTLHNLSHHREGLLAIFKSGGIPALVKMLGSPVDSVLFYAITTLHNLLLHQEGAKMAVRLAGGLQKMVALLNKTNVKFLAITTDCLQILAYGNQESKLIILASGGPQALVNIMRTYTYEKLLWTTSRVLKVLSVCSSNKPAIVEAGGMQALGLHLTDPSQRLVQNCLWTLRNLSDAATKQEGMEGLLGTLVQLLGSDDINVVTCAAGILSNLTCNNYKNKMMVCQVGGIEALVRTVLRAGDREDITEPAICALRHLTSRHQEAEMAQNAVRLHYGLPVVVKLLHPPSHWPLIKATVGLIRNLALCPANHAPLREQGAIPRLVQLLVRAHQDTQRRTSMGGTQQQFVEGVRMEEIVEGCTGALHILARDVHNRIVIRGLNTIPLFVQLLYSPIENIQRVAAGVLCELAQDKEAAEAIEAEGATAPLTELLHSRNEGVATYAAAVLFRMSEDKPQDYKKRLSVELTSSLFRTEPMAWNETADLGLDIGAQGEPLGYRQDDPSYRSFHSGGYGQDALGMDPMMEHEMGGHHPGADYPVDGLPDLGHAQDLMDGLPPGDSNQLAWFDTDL
# [2] = Binding affinity to quail lipocalin Q83 assessed as first molecule binding at 2:1 compound:protein ratio by […]; set-up: species or system Galliformes
# [3] = tested on: Galliformes; experiment: Binding affinity to quail lipocalin Q83 by 1H-15N HSQC-based NMR analysis
# [4] = Binding affinity to quail lipocalin Q83 assessed as second molecule binding at 2:1 compound:protein ratio by […]; set-up: species or system Galliformes
# [5] = Binding affinity to quail lipocalin Q83 at 200 uM by tryptophan fluorescence quenching experiment; set-up: species or system Galliformes
Compound,Activity [1],Kd [2],Activity [3],Kd [4],Kd [5]
Cc1c(Br)cc2c(-c3ccccc3C(=O)O)c3cc(Br)c(=O)c(Br)c-3oc2c1Br,Active,,,,
COc1cc(C(=O)O)ccc1O [VANILLIC ACID],,500 µM,Active,70000 µM,
O=C1OC2(c3ccc(O)cc3Oc3cc(O)ccc32)c2ccccc21,Active,,,,
Nc1ccc(/N=N/c2ccc(S(=O)(=O)O)cc2)cc1S(=O)(=O)O,,,Active,,25 µM
